Patent publication US12030908B2, “Antimicrobial compounds, compositions, and uses thereof” (Lakewood Amedex, Inc., priority 2017, dated 2024)
Several values for one entry are separate records, joined by “and”; a condition that tells them apart may be missing. Equal entries are not always repeated.

Test system: Pseudomonas aeruginosa (ATCC27853)
Assay: Neutropenic lung infection model in mice, aerosol treatment (Example 23)
Format: in vivo, BALB/c mice
Conditions: for Mean ± SD (Log10 CFU/g lung) / Log10 CFU/g lung: 10% aerosol, 40 min, 24 h PI; for Log10 CFU/g lung: individual mice
Protocol: Neutropenic, BALB/c female mice, all of which were from 6 to 8 weeks of age, were infected intranasally with Pseudomonas aeruginosa (ATCC27853). Twenty-four hours post infection; animals were treated intra-nasally by nebulization with Nu-8 (10% nebulized for twenty minutes, twice). At two, four and six hours post treatment, animals were terminated; lung tissues were collected to determine the bacterial load.
The mice were separated into cohorts in accordance with Table 11.
On day −4 (four days before the date of infection), each mouse was dosed with a single intraperitoneal injection of cyclophosphamide equivalent to 150 mg/kg and returned to its cage. On day −1 (one day before infection) each mouse received a dose equivalent to 100 mg/kg of cyclophosphamide.
On day −1, an aliquot from glycerol stocks of P. aeruginosa (ATCC27853) was thawed, inoculated into fresh Casein Soybean Digest Broth (CSDB) and incubated overnight at 37 C.
On the day of infection (Day 0), the overnight culture was centrifuged and the cells were pelleted and resuspended in sterile normal saline to obtain approximately 10^9 CFU/ml P. aeruginosa, which was used for infection. The inoculum was serially diluted ten-fold in sterile CSDB broth and 0.05 ml of six dilutions was plated onto CSD Agar plates to determine the viable count (CFU/ml) of inoculum.
Animals were divided into different groups as specified in the experimental design (TABLE 11). Infections were conducted in a biological safety cabinet, with appropriate personnel protection. Mice were placed into an induction chamber and anesthesia was induced by exposing the animals to 3%-5% Isoflurane in an oxygen flow set at approximately 1 liter per minute (LPM). Once the animals were in a sufficiently deep plane of anesthesia, they were removed and infected. Infection was done by instilling 0.02 ml (containing ˜1×10^9 CFU/ml) intra-nasally. 10 μl was instilled into each nostril of the anesthetized animal (˜2×10^7 CFU/animal). A gentle shaking/mixing of inoculum between two animals was followed for uniform distribution.
The vehicle used for the test compound was saline (0.9% NaCl adjusted to pH 3.5 with citric acid). To make 10% solution, 15 g Nu-8 was weighed and dissolved in 145 ml of the saline and the pH of the solution was adjusted to 3.5 with citric acid (0.1 M) in a final volume of 150 ml.
Treatment was initiated twenty four hours post infection. Test formulations were administered by aerosol route with nose only apparatus connected to a nebulizer (Omron Ne-C28 Compressor Nebulizer with a volume capacity of 15 ml, Particle size 3 μm, nebulization rate: 0.5 ml/min, and Aerosol output rate: 0.09 ml/min. At the given aerosol output rate of 0.09 ml/min, a total of 6 animals at the port, each animal will receive 15 μl/min. In 40 min, a total of 60 mg in 600 μl will be delivered to each animal). The formulation prepared previously was placed into the nebulizer fluid cup; animals were placed in the nose only apparatus and the entire system was placed inside a Class II Biosafety Cabinet. Animals received nebulization for 20 min, followed by a 30-minute rest and then an additional 20-minute exposure at the same dose concentration (the flow rate and percentage of test material available at the inhalation port was 16% of the initial concentration in the nebulizer if the test compound is in solution).
Groups of animals were euthanized at 2, 4 and 6 hours post treatment, as specified in experimental design, by an overdose of CO2 in an appropriate exposure chamber.
The euthanized animals were dipped into 70% ethanol for surface decontamination. Lungs were aseptically excised, weighed, placed in a 2 ml centrifuge tube containing 1 ml of sterile CSDB broth, and homogenized (Omni Tip (220THB handheld)). Serial ten-fold dilutions of the lung homogenates were prepared in sterile CSDB broth and 0.05 ml of four dilutions for each lung was plated onto CSDA agar plates. […]

## CCCCOP(=O)(O)OC[C@H]1O[C@@H](n2ccc(N)nc2=O)C[C@@H]1OP(=O)(O)OCCCC [Nu-8, sodium ((2R,3S,5R)-5-(4-amino-2-oxopyrimidin-1(2H)-yl)-3-((butoxyoxidophosphor-yl)oxy)tetrahydrofuran-2-yl)methyl butyl phosphate]
2 h post end of treatment
  Mean ± SD (Log10 CFU/g lung): 4.92 ± 0.19 Log10 CFU/g lung
  Log10 CFU/g lung: 4.89 Log10 CFU/g lung and 4.76 Log10 CFU/g lung and 4.94 Log10 CFU/g lung and 4.98 Log10 CFU/g lung and 5.24 Log10 CFU/g lung and 4.70 Log10 CFU/g lung
4 h post end of treatment
  Mean ± SD (Log10 CFU/g lung): 4.82 ± 0.26 Log10 CFU/g lung
  Log10 CFU/g lung: 4.51 Log10 CFU/g lung and 5.20 Log10 CFU/g lung and 5.02 Log10 CFU/g lung and 4.64 Log10 CFU/g lung (2×) and 4.88 Log10 CFU/g lung
6 h post end of treatment
  Mean ± SD (Log10 CFU/g lung): 4.68 ± 0.26 Log10 CFU/g lung
  Log10 CFU/g lung: 4.58 Log10 CFU/g lung and 4.53 Log10 CFU/g lung and 5.16 Log10 CFU/g lung and 4.41 Log10 CFU/g lung and 4.60 Log10 CFU/g lung and 4.78 Log10 CFU/g lung
10%, 2, 4 and 6 hours post administration, p<0.05
  antibacterial activity vs vehicle control at 2 h and 4 h: significant antibacterial activity
All groups
  animal condition during the study period: no abnormalities were detected
